Data set [1] deals with Salmonella typhimurium TA98 and TA100. The data set is described as follows: Bacterial reverse mutation test (Ames). To be noted: TA98 and TA100, with or without S9.
Data set [2] has as its system Apo.-induced schizophrenic mouse model. Kind of data set: Apomorphine-induced schizophrenic mouse model, stereotyped behaviors. It is filed as in vivo. The following applies: single oral administration, Apo.-induced model. On the procedure: The drugs are administered by gastric gavage. The model control group is given the same volume of solvent by gastric gavage.
Total score of the stereotyped behaviors of the mice such as tail erection and wall-climbing in the 60 minutes is calculated.
The clinical response symptoms of the animals shall be recorded during the administration and test procedures.

The target in a further data set is D2 receptor (Homo sapiens (Human), UniProt P14416). Kind of data set: Dopamine D2 receptor binding test. The following applies: read-out: Affinity of the compound to D2 receptor, Ki value. The text has this:
This experiment utilizes the plasmid vector containing the gene of D2 receptor protein for transfecting HEK293 cells by calcium phosphate transfection method.
(§1) Beckman LS-6500 multifunction liquid scintillation counter.

A further data set has as its target 5-HT1A receptor (Homo sapiens (Human), UniProt P08908). Kind of data set: 5-HT1A receptor binding test. To be noted: read-out: Affinity of the compound to 5-HT1A receptor, Ki value. On the procedure: Cells: HEK-293 cells stably expressing 5-HT1A receptors as obtained by gene recombination are cultured for 3-5 days in cell culture medium DMEM supplemented with 10% serum.
Competitive inhibition ratio of each compound at the concentration of 10 μmol/L to inhibit the binding of [^3H]8-OH-DPAT to 5-HT1A receptor is determined for primary screening.
The components are mixed to homogeneity, and then the above tubes are transferred to water bath at 30° C. (1 h), removed into ice bath immediately, and suction filtered on Harvest (with ice cold Tris eluate for 5 times).

Data set [3] deals with MK-801-induced schizophrenic mouse model. The data set is described as follows: MK-801-induced schizophrenic mouse model, open-field movement. To be noted: single oral administration, MK-801-induced model.
The target in data set [4] is human recombinant D3 receptor (Homo sapiens (Human), UniProt P35462). Kind of data set: Dopamine D3 receptor binding test. The following applies: read-out: Affinity of the compound to D3 receptor, Ki value. On the procedure:
With [^3H]methyl-spiperone (0.3 nM) as the ligand and (+)-butaclamol (10 LM) for determining non-specific binding, binding tests are carried out on human recombinant D3 receptor (expressed in CHO cells).

Another data set concerns the target 5-HT2A receptor (Homo sapiens (Human), UniProt P28223). Kind of data set: 5-HT2A receptor binding test. The following applies: read-out: Affinity of the compound to 5-HT2A receptor, Ki value; [3H]-Ketanserin, 5-HT2A receptor expressed in HEK293 cells.
From the text: as §1

Sequence of 5-HT1A receptor (P08908 whole entry): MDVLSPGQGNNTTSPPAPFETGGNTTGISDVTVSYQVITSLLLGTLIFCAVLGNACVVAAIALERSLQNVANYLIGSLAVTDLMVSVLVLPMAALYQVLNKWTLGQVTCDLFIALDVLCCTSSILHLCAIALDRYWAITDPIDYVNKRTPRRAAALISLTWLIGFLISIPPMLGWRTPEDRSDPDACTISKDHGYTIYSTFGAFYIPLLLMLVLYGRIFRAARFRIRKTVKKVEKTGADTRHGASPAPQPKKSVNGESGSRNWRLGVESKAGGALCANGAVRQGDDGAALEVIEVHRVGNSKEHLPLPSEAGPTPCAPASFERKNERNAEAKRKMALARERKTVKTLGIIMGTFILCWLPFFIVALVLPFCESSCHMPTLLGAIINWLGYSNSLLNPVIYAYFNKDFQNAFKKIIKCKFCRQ
Sequence of 5-HT2A receptor (P28223 whole entry): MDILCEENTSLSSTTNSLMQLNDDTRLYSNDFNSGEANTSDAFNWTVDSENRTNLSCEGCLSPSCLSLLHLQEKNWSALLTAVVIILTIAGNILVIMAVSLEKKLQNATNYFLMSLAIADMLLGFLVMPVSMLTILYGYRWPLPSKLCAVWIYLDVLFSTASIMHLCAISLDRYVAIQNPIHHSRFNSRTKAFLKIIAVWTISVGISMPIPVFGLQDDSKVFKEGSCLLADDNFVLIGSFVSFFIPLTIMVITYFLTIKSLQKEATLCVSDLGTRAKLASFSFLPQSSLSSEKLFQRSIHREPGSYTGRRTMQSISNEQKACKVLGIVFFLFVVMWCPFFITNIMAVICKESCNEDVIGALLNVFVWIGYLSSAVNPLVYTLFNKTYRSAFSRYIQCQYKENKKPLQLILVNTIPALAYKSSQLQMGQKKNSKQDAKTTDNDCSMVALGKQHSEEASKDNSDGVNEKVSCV
Sequence of D2 receptor (P14416 whole entry): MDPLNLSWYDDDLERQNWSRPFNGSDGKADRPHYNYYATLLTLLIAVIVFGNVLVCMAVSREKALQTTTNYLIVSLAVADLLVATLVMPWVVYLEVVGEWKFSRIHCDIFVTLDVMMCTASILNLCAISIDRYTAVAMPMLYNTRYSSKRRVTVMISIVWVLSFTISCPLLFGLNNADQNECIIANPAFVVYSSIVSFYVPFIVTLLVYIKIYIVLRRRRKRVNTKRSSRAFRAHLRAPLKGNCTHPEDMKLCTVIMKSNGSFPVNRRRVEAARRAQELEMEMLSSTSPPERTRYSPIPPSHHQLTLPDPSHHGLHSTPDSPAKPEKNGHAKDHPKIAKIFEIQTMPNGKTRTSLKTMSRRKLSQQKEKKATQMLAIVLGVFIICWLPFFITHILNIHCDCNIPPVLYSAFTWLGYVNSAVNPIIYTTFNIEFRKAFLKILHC
Sequence of human recombinant D3 receptor (P35462 whole entry): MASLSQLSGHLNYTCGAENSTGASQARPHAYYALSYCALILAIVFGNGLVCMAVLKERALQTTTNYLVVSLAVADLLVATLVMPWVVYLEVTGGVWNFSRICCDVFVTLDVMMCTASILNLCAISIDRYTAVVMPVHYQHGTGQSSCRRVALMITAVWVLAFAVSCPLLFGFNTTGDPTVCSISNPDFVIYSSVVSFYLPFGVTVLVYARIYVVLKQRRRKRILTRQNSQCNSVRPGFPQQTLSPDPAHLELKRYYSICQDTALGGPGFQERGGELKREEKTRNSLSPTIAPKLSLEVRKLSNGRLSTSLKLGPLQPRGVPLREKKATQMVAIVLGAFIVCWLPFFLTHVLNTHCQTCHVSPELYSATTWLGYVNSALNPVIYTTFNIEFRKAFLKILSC

For orientation: Ki means a dissociation constant, usually derived from enzyme kinetics or from competition with a known ligand. As to `O=C(NCc1ccccc1)N[C@H]1CC[C@H](CCN2CCN(c3nsc4ccccc34)CC2)CC1` [IV-11], the “Ames test result (colonies with reverse mutations)” value in data set [1] is “negative”. Also, the “ED50, inhibition of the total stereotyped behaviors” value in data set [2] turned out to be 0.53 mg/kg. The Ki at D2 receptor turned out to be 1.4 nM; at 5-HT1A receptor, 5.3 nM; in data set [4], 0.18 nM; on 5-HT2A receptor, 0.91 nM. Moreover, the “ED50, total distance of the open-field movement” value in data set [3] turned out to be 0.060 mg/kg.

The values are drawn from patent US9550741B2, “Benzoisothiazole compounds and methods of treating schizophrenia” (SHANGHAI INSTITUTE OF PHARMACEUTICAL INDUSTRY, priority 2013, dated 2017).
